According to publication PMC8400343, “Synthesis and Evaluation of the Antidepressant-like Properties of HBK-10, a Novel 2-Methoxyphenylpiperazine Derivative Targeting the 5-HT1A and D2 Receptors” (Pharmaceuticals, 2021):
Read-outs that look alike come from different tables or passages of the source.

Experiments:
[1] = molecular target: T1, human serotonin 5-HT1A receptor (Homo sapiens, UniProt P08908); test: Functional assay, inhibition of cAMP production, CHO-K1 cells; format: cell-based
T1 construct: expressed in transfected cells; host or cells: CHO-K1 (cryopreserved, whole cells)
T1 sequence (P08908 1-422): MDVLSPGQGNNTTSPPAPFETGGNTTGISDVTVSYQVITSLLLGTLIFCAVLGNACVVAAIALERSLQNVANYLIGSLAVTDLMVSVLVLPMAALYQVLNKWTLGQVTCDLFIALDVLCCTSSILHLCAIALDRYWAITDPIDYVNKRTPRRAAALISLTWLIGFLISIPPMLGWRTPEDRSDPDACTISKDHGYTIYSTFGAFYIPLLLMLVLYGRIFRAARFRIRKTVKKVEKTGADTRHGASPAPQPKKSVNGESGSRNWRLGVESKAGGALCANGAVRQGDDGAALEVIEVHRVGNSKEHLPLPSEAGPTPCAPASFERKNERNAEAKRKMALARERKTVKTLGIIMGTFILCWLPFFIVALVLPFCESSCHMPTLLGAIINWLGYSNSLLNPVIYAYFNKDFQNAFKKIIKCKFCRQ
Description: Tested and reference compounds were dissolved in dimethyl sulfoxide (DMSO) at a concentration of 10 mM. Serial dilutions were prepared in 96-well microplate in assay buffer, and 8 to 10 concentrations were tested. […] Thawed cells were resuspended in stimulation buffer (HBSS, 5 mM HEPES, […], and 0.1% BSA at pH 7.4) at 2 × 10^5 cells/mL. The 10 µL of cell suspension was added to tested compounds with 10 µM forskolin. Samples were loaded onto a white opaque half area 96-well microplate. […] The agonist and antagonist were added simultaneously. Cell stimulation was performed for 40 min at room temperature. After incubation, cAMP measurements were performed with homogeneous TR-FRET immunoassay using the LANCE Ultra cAMP kit (PerkinElmer, Waltham, MA, USA). Ten microliters of EucAMP Tracer Working Solution and 10 µl of ULight-anti-cAMP Tracer Working Solution were added, mixed, and incubated for 1 h. The TR-FRET signal was read on an EnVision microplate reader (PerkinElmer, USA). IC50 and EC50 were determined by nonlinear regression analysis using GraphPad Prism 6.0 software.

[2] = test system: corticosterone-treated mice; test: Forced swim test in corticosterone-induced mouse model of depression; format: in vivo; conditions: for Decrease of immobility in the forced swim test in corticosterone-treated mice: chronic (3 weeks)
Description: The experiment was performed on mice according to the method described by Porsolt et al. and as previously described. Mice were placed individually in glass cylinders (height 25 cm, diameter 10 cm) filled with water at 24 ± 1 °C to a depth of 10 cm and left there for 6 min. Following a 2 min habituation period, total time spent immobile was recorded during the next 4 min. The animal was considered as immobile when it remained floating passively in the water, making only small movements to keep its head above the water. The experiments were video-recorded and scored using elevenmaze.com software by a trained observer blind to the treatments.
Mice were injected with corticosterone (sc, 20 mg/kg) at random times during the light phase for 21 days. The dose and route of administration of corticosterone were based on our previous study. Control mice received saline containing 0.1% dimethyl sulfoxide (DMSO) and 0.1% Tween (sc). For the next 21 days, 30 min before the corticosterone injection, mice were injected with saline, HBK-10 (0.625 or 1.25 mg/kg), or fluoxetine (15 mg/kg) (ip). Twenty-four hours after the last injection, animals were tested in the forced swim test and locomotor activity test (Figure 8).

[3] = molecular target: T2, dopamine D2 receptor (Homo sapiens, UniProt P14416); test: Aequorin-based calcium mobilization functional assay, CHO-K1 cells; format: cell-based
T2 construct: expressed in transfected cells; host or cells: recombinant CHO-K1 co-expressing mitochondrially targeted aequorin and Gαqi/5
Description: Therefore, using in vitro functional assay, we next investigated the type of the interaction with this receptor.
Tested and reference compounds were dissolved in dimethyl sulfoxide (DMSO) at a concentration of 1 mM. Serial dilutions were prepared in 96-well microplate in assay buffer, and 8-to-10 concentrations were tested. A cellular aequorin-based functional assay was performed with recombinant CHO-K1 cells expressing mitochondrially targeted aequorin, human GPCR, and the promiscuous G protein Gαqi/5 for D2 receptor. After thawing, cells were transferred to assay buffer (DMEM/HAM’s F12 with 0.1% protease-free BSA) and centrifuged. The cell pellet was resuspended in assay buffer, and coelenterazine h was added at final concentrations of 5 µM. […] After 1 h of incubation, 50 µL of the cell’s suspension was dispensed using automatic injectors built into the radiometric and luminescence plate counter MicroBeta2 LumiJET (PerkinElmer, USA) into white opaque 96-well microplates preloaded with test compounds. Immediate light emission generated following calcium mobilization was recorded for 30 s. In antagonist mode, after 30 min of incubation, the reference agonist was added to the above assay mix and light emission was recorded again.

[4] = MTT viability assay in HepG2 cells; format: cell-based; conditions: human, % of control, read-out: Viability (% ± SEM)
Description: To investigate the lack of hepatotoxicity of HBK-10 at 25 µM concentration, we used HepG2 cells. Viability was measured using 3-(4,5-dimethyl-thiazol-2-yl)-2,5-diphenyltetrazolium (MTT) assay. We chose 25 µM since such concentration was used in metabolic stability studies.
To investigate the preliminary hepatic safety of HBK-10 at the concentration used in metabolic stability study, a human hepatocellular carcinoma cell line—HepG2 (HB-8065TM, ATCC, Manassas, VA, USA) was used in the study. HepG2 cells were cultured in standard conditions (37 °C, 5% CO2, 95% humidity) in appropriate culture medium (according to manufacturer procedure), supplemented with 10% fetal bovine serum (FBS, Gibco, Thermo Fisher Scientific, Waltham, MA, USA) and antibiotics (1% streptomycin/penicillin mixture; Sigma-Aldrich, Steinheim, Germany). Cells were seeded in 96-well plates at density of 1 × 10^4 per well. After 24 h cells were treated with two doses of HBK-10 (5 and 25 µM, solvent—PBS) and incubated for additional 24 h. Following the incubation cells viability was measured with MTT assay. For this purpose, MTT reagent (3-(4,5-dimethylthiazol-2-yl)-2,5-diphenyltetrazolium bromide) (Sigma Aldrich, Steinheim, Germany) was added to each well at the concentration 0.5 mg/mL. After 4 h incubation at 37 °C, the medium was aspirated, and formazan crystals produced in the cells were dissolved in DMSO. Then the absorbance of solution was determined at 570 nm (A570) on plate reader (Spectra iD3 Max, Molecular Devices; San Jose, CA, USA). Viability (% of control) was determined by dividing A570 of experimental wells by of A570 of control wells × 100%.

[5] = CHO-K1, read-out: Emax %, agonist mode
[6] = read-out: pIC50 ± SEM, antagonist mode (converted)

T2 sequence (P14416 whole entry): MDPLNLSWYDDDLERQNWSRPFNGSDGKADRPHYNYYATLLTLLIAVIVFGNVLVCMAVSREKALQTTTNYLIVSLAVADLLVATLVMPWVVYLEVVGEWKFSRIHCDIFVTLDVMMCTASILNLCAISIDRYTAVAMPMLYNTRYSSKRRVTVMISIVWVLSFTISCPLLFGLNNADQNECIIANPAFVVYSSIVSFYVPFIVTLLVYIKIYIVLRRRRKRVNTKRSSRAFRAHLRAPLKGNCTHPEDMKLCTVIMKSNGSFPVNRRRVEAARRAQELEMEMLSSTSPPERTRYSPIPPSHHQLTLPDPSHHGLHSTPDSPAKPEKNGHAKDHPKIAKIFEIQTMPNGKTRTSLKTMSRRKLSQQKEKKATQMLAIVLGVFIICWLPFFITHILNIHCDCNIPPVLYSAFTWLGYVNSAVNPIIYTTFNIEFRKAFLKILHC

With `CCC(CN1CCN(c2ccccc2OC)CC1)NCCCOc1c(C)cccc1C.Cl.Cl` (centres unmarked) [HBK-10, N-(3-(2,6-dimethylphenoxy)propyl)-1-(4-(2-methoxyphenyl)piperazin-1-yl)butan-2-amine dihydrochloride] the “Kb, fold lower compared with NAN-190” value ([1]; 5-HT1A, antagonist mode) was 10 fold, the Kb ([1]; 5-HT1A, antagonist mode, Cheng–Prusoff equation) was 64 nM and the Emax [1, 5] was 2%. For the same molecule, the Emax ([1]; CHO-K1, read-out: Emax %, antagonist mode) was 0%, the IC50 [1, 6] was 191 nM and the melting point was 224 to 226 °C. The “Decrease of immobility in the forced swim test in corticosterone-treated mice” value ([2]; 0.625 mg/kg ip) was 30.9%, the “Decrease of immobility in the forced swim test in corticosterone-treated mice” value ([2]; 1.25 mg/kg ip) was 39.5% and the “Active dose in corticosterone model, fold lower than fluoxetine” value ([2]; chronic administration) was 24 fold. The “Active dose in corticosterone model, fold lower than HBK-15” value ([2]; comparator data ref 21) was 2 fold, the Emax [3, 5] was 9% and the “Kb, fold lower than Kb of chlorpromazine” value ([3]; D2, antagonist mode) was 3.1 fold. For the same molecule, the Kb ([3]; D2, antagonist mode, Cheng–Prusoff equation) was 2.76 nM, the IC50 [3, 6] was 9.33 nM and the viability at 24 h, 1 µM ([4]; HBK-10 1 μM) was 102 ± 3.3%. The viability at 24 h, 5 µM ([4]; HBK-10 5 μM) was 109 ± 0.9% and the viability at 24 h, 25 µM ([4]; HBK-10 25 μM) was 99 ± 2.4%.
